Measured values from patent US20230100844A1, “IBOGAINE COMBINATION TREATMENT” (ATAI Life Sciences AG, priority 2021, published 2023).
Like-named read-outs stand apart in the source and are kept apart here.

What was measured:
[1] = in vivo; cited from earlier work
[2] = target: T1, CYP2D6 (Homo sapiens, UniProt P10635); conditions: humans; cited from earlier work
T1 construct: host or cells: human subjects (endogenous enzyme of gut wall and liver)

[3] = cited from earlier work
[4] = Nonclinical proof-of-concept PD study: drug self-administration after CYP2D6 inhibitor plus ibogaine; assay type: in vivo, rats and/or nonhuman primates; conditions: single dose CYP2D6 inhibitor followed by single dose ibogaine
Experimental: Nonclinical proof-of-concept PD studies (rats and/or nonhuman primates):
Dose(s) of CYP2D6 inhibitor based on prior PK studies in the same species are tested. Intravenous drug self-administration studies involve training the animal to emit a response (e.g., lever press) for a non-drug reinforcer (e.g., food) under specific stimulus conditions in the test chamber. Then, the animal undergoes aseptic surgery to place a chronically indwelling intravenous cannula that is connected to a drug infusion system within the test chamber. After surgical recovery, the stimulus conditions in the test chamber now signal the availability of a drug reinforcer (e.g., morphine or cocaine), and lever pressing results in an intravenous infusion of the available drug during daily session. For studies of oral self-administration (e.g., ethanol), animals are trained to self-administer the drug using a lever paradigm (e.g., in which pressing of the lever results in delivery of the drug solution into a drinking cup) or a two-bottle choice […] paradigm (e.g., in which animals are allowed to drink for 24 hours from one bottle containing a drug solution or another bottle containing water). During a test session, vehicle or a dose of CYP2D6 inhibitor is administered prior to a dose of ibogaine and then, responses on the drug-associated lever or the volume of drug solution consumed are measured.

[5] = in vivo; cited from earlier work; remark: listed apart in the source
[6] = animals, meta-analysis; cited from earlier work
[7] = single oral 8-12 mg/kg HCl; cited from earlier work
[8] = single oral 10 mg/kg ibogaine, cited from earlier work
[9] = cited from earlier work; for plasma exposures with chronic paroxetine: CYP2D6 extensive metabolizers, paroxetine 10-20 mg, single ibogaine 20 mg (about 0.3 mg/kg); for time out to which ibogaine plasma exposures are detectable: single ibogaine 20 mg
[10] = single oral administration, humans; cited from earlier work
[11] = oral administration; cited from earlier work

T1 sequence (P10635 whole entry): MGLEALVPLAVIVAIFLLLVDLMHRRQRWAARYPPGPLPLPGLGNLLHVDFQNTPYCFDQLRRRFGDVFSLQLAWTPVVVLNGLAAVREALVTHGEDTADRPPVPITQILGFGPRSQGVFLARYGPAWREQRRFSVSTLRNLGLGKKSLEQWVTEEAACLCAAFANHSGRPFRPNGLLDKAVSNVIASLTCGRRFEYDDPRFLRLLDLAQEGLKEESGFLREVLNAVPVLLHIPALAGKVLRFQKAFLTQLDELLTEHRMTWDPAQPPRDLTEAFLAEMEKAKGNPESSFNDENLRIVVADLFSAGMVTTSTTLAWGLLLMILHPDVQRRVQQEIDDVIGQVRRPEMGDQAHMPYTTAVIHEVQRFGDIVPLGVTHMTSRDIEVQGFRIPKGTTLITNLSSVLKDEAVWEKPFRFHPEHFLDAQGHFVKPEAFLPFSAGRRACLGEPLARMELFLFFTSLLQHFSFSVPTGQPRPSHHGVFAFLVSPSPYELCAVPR

Compound: CNCCC(Oc1ccc(C(F)(F)F)cc1)c1ccccc1 (stereo not shown) [Fluoxetine, fluoxetine]
- half-life [1]: long half-life (days)

Compound: C=C[C@H]1C[N@@]2CC[C@H]1C[C@@H]2[C@@H](O)c1ccnc2ccc(OC)cc12 [Quinidine, quinidine]
- in vivo CYP2D6 inhibition [2]: can inhibit the metabolism of the CYP2D6 substrate debrisoquine in vivo

Compound: CC(NC(C)(C)C)C(=O)c1cccc(Cl)c1 (stereo not shown) [bupropion]
- single-dose half-life ([3]; single dose): 10 to 15 h

Compound: C[C@H]1NC(C)(C)CO[C@]1(O)c1cccc(Cl)c1 [hydroxybupropion]
- half-life of metabolite ([3]; bupropion metabolites that also inhibit CYP2D6): 22 to 25 h

Compound: CCC1CC2CC3c4[nH]c5ccc(OC)cc5c4CCN(C2)C13 (stereo not shown) [ibogaine, Ibogaine]
- therapeutic-like effects (reduction of drug self-administration) with CYP2D6 inhibitor pretreatment [4]: increases ibogaine's therapeutic-like effects
- time within which visualizations and perceptual changes subside [5]: 6 to 8 h
- self-administration of drugs (opiates, cocaine, ethanol) [6]: reduced self-administration of several drugs
- opioid withdrawal signs, craving and mood [7]: reduced opioid withdrawal signs and craving and increased mood
- absorbed ibogaine eliminated by 24 hours post dose ([8]; CYP2D6 extensive metabolizers): > 90%
- exposure in CYP2D6 poor metabolizers compared to extensive metabolizers [8]: modestly increased
- plasma exposures with chronic paroxetine [9]: increased plasma exposures
- time out to which ibogaine plasma exposures are detectable ([9]; chronic paroxetine 10-20 mg): 72 h
- time out to which ibogaine plasma exposures are detectable ([9]; chronic placebo treatment): < 4 h
- time blood concentrations were detectable [10]: about 24 h
- time to peak blood concentration [10]: peaked within a couple of hours
- cardiac QT interval [11]: associated with cardiac QT interval prolongation

Compound: CC[C@H]1C[C@H]2C[C@H]3c4[nH]c5ccc(O)cc5c4CCN(C2)[C@@H]13 [noribogaine]
- Cmax in blood ([8]; CYP2D6 extensive metabolizers): in the same range as the parent drug
- concentrations at 24 hours ([8]; CYP2D6 extensive metabolizers): remained elevated
- exposure in CYP2D6 poor metabolizers compared to extensive metabolizers [8]: markedly decreased
- plasma exposures with chronic paroxetine [9]: decreased plasma exposures
- time blood concentrations were detectable [10]: detectable for a longer duration
- time to peak blood concentration [10]: peaked later
